Experimental data from patent US9040545B2, “Heterocyclyl pyrazolopyrimidine analogues as selective JAK inhibitors” (Cellzome Limited, priority 2010, dated 2015).
pIC50: −log10 of the molar value.

Molecular target: T1, Aurora A (Homo sapiens, UniProt O14965)
T1 construct: cell lysates from Jurkat cells (ATCC TIB-152) used; endogenous in cells; host or cells: Jurkat cells (ATCC TIB-152), treated with pervanadate
T1 sequence (O14965 1-403): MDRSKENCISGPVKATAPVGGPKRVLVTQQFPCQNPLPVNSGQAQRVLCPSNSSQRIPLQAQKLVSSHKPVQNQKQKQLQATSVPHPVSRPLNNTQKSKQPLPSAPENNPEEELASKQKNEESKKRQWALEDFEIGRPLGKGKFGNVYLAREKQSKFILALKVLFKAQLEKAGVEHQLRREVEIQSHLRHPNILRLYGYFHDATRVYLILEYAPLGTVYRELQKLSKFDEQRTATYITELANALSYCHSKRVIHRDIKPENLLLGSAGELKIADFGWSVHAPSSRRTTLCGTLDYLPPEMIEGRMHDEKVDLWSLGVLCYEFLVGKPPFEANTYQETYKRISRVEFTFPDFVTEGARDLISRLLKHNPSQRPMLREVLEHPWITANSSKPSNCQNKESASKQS
Test: Kinobeads assay, Aurora A
Type: binding
Conditions: for pIC50: lysate of pervanadate-treated Jurkat cells, read-out: Inhibition values (IC50) Aur A
Protocol: The compounds of the present invention as described in the previous examples were tested in a Kinobeads™ assay as described for ZAP-70 (WO-A 2007/137867). Briefly, test compounds (at various concentrations) and the affinity matrix with the immobilized aminopyrido-pyrimidine ligand 24 were added to cell lysate aliquots and allowed to bind to the proteins in the lysate sample. After the incubation time the beads with captured proteins were separated from the lysate. Bound proteins were then eluted and the presence of JAK2 and JAK3 was detected and quantified using specific antibodies in a dot blot procedure and the Odyssey infrared detection system. Dose response curves for individual kinases were generated and IC50 values calculated. Kinobeads™ assays for ZAP-70 (WO-A 2007/137867) and for kinase selectivity profiling (WO-A 2006/134056) have been previously described.
The affinity matrix was washed two times with 15 mL of 1×DP buffer containing 0.2% NP40 (IGEPAL® CA-630, Sigma, #I3021) and then resuspended in 1×DP buffer containing 0.2% NP40 (3% beads slurry).
5×DP buffer 250 mM Tris-HCl pH 7.4, 25% Glycerol, 7.5 mM MgCl2, 750 mM NaCl, 5 mM Na3VO4; filter the 5×DP buffer through a 0.22 μm filter and store in aliquots at −80° C. The 5×DP buffer is diluted with H2O to 1×DP buffer containing 1 mM DTT and 25 mM NaF.
Stock solutions of test compounds were prepared in DMSO. In a 96 well plate 30 μL solution of diluted test compounds at 5 mM in DMSO were prepared. Starting with this solution a 1:3 dilution series (9 steps) was prepared. For control experiments (no test compound) a buffer containing 2% DMSO was used.
Cell lysate (approximately 50 mg protein per plate) was thawed in a water bath at room temperature and then stored on ice. To the thawed cell lysate 1×DP 0.8% NP40 buffer containing protease inhibitors (1 tablet for 25 mL buffer; EDTA-free protease inhibitor cocktail; Roche Diagnostics 1873580) was added in order to reach a final protein concentration of 10 mg/mL total protein. The diluted cell lysate was stored on ice. Mixed Molt4/Ramos lysate was prepared by combining one volume of Molt4 lysate and two volumes of Ramos lysate (ratio 1:2).
To a 96 well filter plate (Multiscreen HTS, BV Filter Plates, Millipore #MSBVN1250) were added per well: 100 μL affinity matrix (3% beads slurry), 3 μL of compound solution, and 50 μL of diluted lysate. Plates were sealed and incubated for 3 hours in a cold room on a plate shaker (Heidolph tiramax 1000) at 750 rpm. Afterwards the plate was washed 3 times with 230 μL washing buffer (1×DP 0.4% NP40). The filter plate was placed on top of a collection 1 plate (Greiner bio-one, PP-microplate 96 well V-shape, 65120) and the beads were then eluted with 20 μL of sample buffer (100 mM Tris, pH 7.4, 4% SDS, 0.00025% bromophenol blue, 20% glycerol, 50 mM DTT). The eluate was frozen quickly at −80° C. and stored at −20° C.
The kinases in the eluates were detected and quantified by spotting on nitrocellulose membranes and using a first antibody directed against the kinase of interest and a fluorescently labelled secondary antibody (anti-rabbit IRDye™ antibody 800 (Licor, #926-32211). The Odyssey Infrared Imaging system from LI-COR Biosciences (Lincoln, Nebr., USA) was operated according to instructions provided by the manufacturer (Schutz-Geschwendener et al, 2004. Quantitative, two-color Western blot detection with infrared fluorescence. Published May 2004 by LI-COR Biosciences, www.licor.com).
After spotting of the eluates the nitrocellulose membrane (BioTrace NT; PALL, #BTNT30R) was first blocked by incubation with Odyssey blocking buffer (LICOR, 927-40000) for 1 hour at room temperature. Blocked membranes were then incubated for 16 hours at the temperature shown in Table 5 with the first antibody diluted in Odyssey blocking buffer (LICOR #927-40000). Afterwards the membrane was washed twice for 10 minutes with PBS buffer containing 0.2% Tween 20 at room temperature. […]

| SMILES | JAK3/AurA Fold Selectivity | pIC50 |
| --- | --- | --- |
| Cn1cc(Nc2ncc3cnn(Cc4cc(F)cc(N5CC6(COC6)C5)c4)c3n2)cn1 [Example 90, 1-(3-fluoro-5-(2-oxa-6-azaspiro[3.3]heptan-6-yl)benzyl)-N-(1-methyl-1H-pyrazol-4-yl)-1H-pyrazolo[3,4-d]pyrimidin-6-amine] | 10-50 Fold | ≤ 5.00 |
| Cn1cc(Nc2ncc3cnn(Cc4cccc(N5CC6(COC6)C5)c4F)c3n2)cn1 [Example 91, 1-(2-fluoro-3-(2-oxa-6-azaspiro[3.3]heptan-6-yl)benzyl)-N-(1-methyl-1H-pyrazol-4-yl)-1H-pyrazolo[3,4-d]pyrimidin-6-amine] | – | ≤ 5.00 |
| Cn1cc(Nc2ncc3cnn(Cc4cc(F)cc(N5CCNCC5)c4)c3n2)cn1 [Example 92, 1-(3-fluoro-5-(piperazin-1-yl)benzyl)-N-(1-methyl-1H-pyrazol-4-yl)-1H-pyrazolo[3,4-d]pyrimidin-6-amine] | 10-50 Fold | 6.00 to 7.00 |
| OCCn1cc(Nc2ncc3cnn(Cc4cc(F)cc(N5CCNCC5)c4)c3n2)cn1 [Example 93, 2-(4-((1-(3-fluoro-5-(piperazin-1-yl)benzyl)-1H-pyrazolo[3,4-d]pyrimidin-6-yl)amino)-1H-pyrazol-1-yl)ethanol] | 10-50 Fold | 6.00 to 7.00 |
| Fc1cc(N2CCOCC2)c(F)c(Cn2ncc3cnc(Nc4cnn(CC5CCNC5)c4)nc32)c1F (stereo not shown) [Example 94, N-(1-(pyrrolidin-3-ylmethyl)-1H-pyrazol-4-yl)-1-(2,3,6-trifluoro-5-morpholinobenzyl)-1H-pyrazolo[3,4-d]pyrimidin-6-amine] | >50 Fold | 5.00 to 6.00 |
| Cn1cc(Nc2ncc3cnn(Cc4cc(F)cc(N5CCNCC5)c4F)c3n2)cn1 [Example 95, 1-(2,5-difluoro-3-(piperazin-1-yl)benzyl)-N-(1-methyl-1H-pyrazol-4-yl)-1H-pyrazolo[3,4-d]pyrimidin-6-amine] | 10-50 Fold | 6.00 to 7.00 |
| OCCn1cc(Nc2ncc3cnn(Cc4cc(F)cc(N5CCNCC5)c4F)c3n2)cn1 [Example 96, 2-(4-((1-(2,5-difluoro-3-(piperazin-1-yl)benzyl)-1H-pyrazolo[3,4-d]pyrimidin-6-yl)amino)-1H-pyrazol-1-yl)ethanol] | >50 Fold | ≤ 5.00 |
| CN(C)CC(F)Cn1cc(Nc2ncc3cnn(Cc4cc(F)cc(N5CCOCC5=O)c4)c3n2)cn1 (stereo not shown) [Example 97, 4-(3-((6-((1-(3-(dimethylamino)-2-fluoropropyl)-1H-pyrazol-4-yl)amino)-1H-pyrazolo[3,4-d]pyrimidin-1-yl)methyl)-5-fluorophenyl)morpholin-3-one] | 10-50 Fold | 6.00 to 7.00 |
| Cn1cc(Nc2ncc3cnn(Cc4cc(C(=O)N5CCOCC5)cc(F)c4F)c3n2)cn1 [Example 98, (3,4-difluoro-5-((6-((1-methyl-1H-pyrazol-4-yl)amino)-1H-pyrazolo[3,4-d]pyrimidin-1-yl)methyl)phenyl)(morpholino)methanone] | 3-10 Fold | > 7.00 |
| CNCCCn1cc(Nc2ncc3cnn(Cc4cc(F)cc(N5CCOCC5=O)c4)c3n2)cn1 [Example 99, 4-(3-fluoro-5-((6-((1-(3-(methylamino)propyl)-1H-pyrazol-4-yl)amino)-1H-pyrazolo[3,4-d]pyrimidin-1-yl)methyl)phenyl)morpholin-3-one] | 3-10 Fold | > 7.00 |
| Cn1cc(Nc2ncc3cnn(Cc4cccc(N5CCN(S(C)(=O)=O)CC5)c4)c3n2)cn1 [Example 100, N-(1-methyl-1H-pyrazol-4-yl)-1-(3-(4-(methylsulfonyl)piperazin-1-yl)benzyl)-1H-pyrazolo[3,4-d]pyrimidin-6-amine] | 3-10 Fold | 6.00 to 7.00 |
| O=C1COCCN1c1cc(F)cc(Cn2ncc3cnc(Nc4cnn(CC5CCNC5)c4)nc32)c1 (stereo not shown) [Example 101, 4-(3-fluoro-5-((6-((1-(pyrrolidin-3-ylmethyl)-1H-pyrazol-4-yl)amino)-1H-pyrazolo[3,4-d]pyrimidin-1-yl)methyl)phenyl)morpholin-3-one] | 10-50 Fold | > 7.00 |
| O=C1COCCN1c1cc(F)cc(Cn2ncc3cnc(Nc4cnn(C5CCNCC5)c4)nc32)c1 [Example 102, 4-(3-fluoro-5-((6-((1-(piperidin-4-yl)-1H-pyrazol-4-yl)amino)-1H-pyrazolo[3,4-d]pyrimidin-1-yl)methyl)phenyl)morpholin-3-one] | 10-50 Fold | > 7.00 |
| Cn1cc(Nc2ncc3cnn(Cc4cccc(N5CCOCC5)c4Cl)c3n2)cn1 [Example 103, 1-(2-chloro-3-morpholinobenzyl)-N-(1-methyl-1H-pyrazol-4-yl)-1H-pyrazolo[3,4-d]pyrimidin-6-amine] | 3-10 Fold | > 7.00 |
| Cn1cc(Nc2ncc3cnn(Cc4cccc(N5CCC6(COC6)C5)c4)c3n2)cn1 [Example 104, 1-(3-(2-oxa-6-azaspiro[3.4]octan-6-yl)benzyl)-N-(1-methyl-1H-pyrazol-4-yl)-1H-pyrazolo[3,4-d]pyrimidin-6-amine] | 10-50 Fold | 6.00 to 7.00 |
| O=C1CC(Cn2cc(Nc3ncc4cnn(Cc5cc(F)cc(N6CCOCC6=O)c5)c4n3)cn2)CN1 (stereo not shown) [Example 105, 4-(3-fluoro-5-((6-((1-((5-oxopyrrolidin-3-yl)methyl)-1H-pyrazol-4-yl)amino)-1H-pyrazolo[3,4-d]pyrimidin-1-yl)methyl)phenyl)morpholin-3-one] | 10-50 Fold | 6.00 to 7.00 |
| O=C1COCCN1c1cc(F)cc(Cn2ncc3cnc(Nc4cnn(CCS(=O)(=O)NC5CC5)c4)nc32)c1 [Example 106, N-cyclopropyl-2-(4-((1-(3-fluoro-5-(3-oxomorpholino)benzyl)-1H-pyrazolo[3,4-d]pyrimidin-6-yl)amino)-1H-pyrazol-1-yl)ethanesulfonamide] | 10-50 Fold | 6.00 to 7.00 |
| N#CCCn1cc(Nc2ncc3cnn(Cc4cc(F)cc(N5CCOCC5=O)c4)c3n2)cn1 [Example 107, 3-(4-((1-(3-fluoro-5-(3-oxomorpholino)benzyl)-1H-pyrazolo[3,4-d]pyrimidin-6-yl)amino)-1H-pyrazol-1-yl)propanenitrile] | 3-10 Fold | > 7.00 |
| Cn1cc(Nc2ncc3cnn(Cc4cccc(N5CCC(=O)CC5)c4)c3n2)cn1 [Example 108, 1-(3-((6-((1-methyl-1H-pyrazol-4-yl)amino)-1H-pyrazolo[3,4-d]pyrimidin-1-yl)methyl)phenyl)piperidin-4-one] | 3-10 Fold | 6.00 to 7.00 |
